Experiments:
[1] = test system: IN/WHO strain house flies; test: topical application test, percent kill after 24 hours, IN/WHO strain; assay type: in vivo, house fly (susceptible IN/WHO strain)
Outline: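 Susceptible female IN/WHO house flies, 3–5 days old, CO2-anesthetized, received synergist plus insecticide in acetone (1.0 μL) on the thorax; doses in μg/fly. Flies held 10 per dish, 3–5 dishes/treatment, with skim milk; mortality (percent kill) read at 24 h.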

mice [2] = test: synergism of acute toxicity of Dimetilan, GS 13005, Secobarbital and Methadone (intraperitoneal); assay type: in vivo, Swiss albino white male mice; conditions: for number of mice dead: 48 hours, of eight mice
Outline: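 Male Swiss albino mice (5–6 weeks, 23–27 g), eight per dose; synergist in corn oil given i.p. 1 h before i.p. insecticide or drug (drugs in distilled water). Lethality recorded over at least 6 h; controls received corn oil plus agent alone.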

mice [3] = test: extension of Secobarbital sleeping time by synergists; assay type: in vivo, Swiss albino white male mice; conditions: Secobarbital 37 mg/K; for Relative Sleeping Time: treated/control
Outline: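 Swiss albino male mice (~38 days, 25-30 g) given synergist at 74.0 or 110.0 mg/kg in corn oil 1 h before Secobarbital 37.0 mg/kg or Noludar 110.0 mg/kg in water. Sleeping time measured from drug dosing to righting-reflex recovery; relative sleeping time = treated ÷ drug-only control.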

[4] = Mobam 0.10 + synergist 0.50 μg/fly
[5] = Dimetilan 8 mg/kg + synergist 80 mg/kg ip
[6] = Dimetilan 8 mg/kg + synergist 240 mg/kg ip
[7] = Mobam 0.50 μg/fly, synergist/insecticide 5/1
[8] = Mobam 1.0 μg/fly, synergist/insecticide 1/1
[9] = Mobam 1.0 μg/fly, synergist/insecticide 2/1
[10] = Mobam 1.0 μg/fly, synergist/insecticide 5/1
[11] = Mobam 0.20 + synergist 1 μg/fly
[12] = GS 13005 71 mg/kg + synergist 213 mg/kg
[13] = Methadone 32 mg/kg + synergist 215 mg/kg
[14] = Secobarbital 90 mg/kg + synergist 215 mg/kg
[15] = Diazinon 0.03 + synergist 0.15 μg/fly
[16] = Mobam 0.05 + synergist 0.25 μg/fly

SMILES | percent kill after 24 hours [1, 4] | number of mice dead (mice [2]; [5]) | number of mice dead (mice [2]; [6]) | Mean Sleeping Time (mice [3]; synergist 74 mg/K) | Relative Sleeping Time (mice [3]; synergist 74 mg/K) | Mean Sleeping Time (mice [3]; synergist 110 mg/K) | Relative Sleeping Time (mice [3]; synergist 110 mg/K) | percent kill after 24 hours [1, 11] | percent kill after 24 hours [1, 15] | other results
C#CCON=C(C)c1ccc(Cl)cc1 [I-D] | 20% | 1 | 6 | 62 min | 1.9 | 56 min | 1.7 | – | – | –
C#CCOCc1c(Cl)ccc(Cl)c1Cl [II-E] | 33% | – | 0 | – | – | 44 min | 1.4 | 100% | – | percent mortality 24 hours [1, 7]: 100%; percent mortality 24 hours ([1]; Mobam 1.0 μg/fly, synergist/insecticide 0.5/1): 100%; percent mortality 24 hours [1, 8]: 100%; percent mortality 24 hours [1, 9]: 100%; percent mortality 24 hours [1, 10]: 100%; percent kill after 24 hours ([1]; synergist alone 1 μg/fly): 0%
C#CCOCc1c(Cl)cccc1[N+](=O)[O-] [II-K] | – | 0 | 6 | 48 min | 1.5 | 44 min | 2 | – | – | 24 hour percent mortality ([1]; Bidrin 0.063 μg/fly with five parts synergist): 0%; 24 hour percent mortality ([1]; Pyrolan 0.13 μg/fly with five parts synergist): 40%; mice lethality (number dead) (mice [2]; [12]): 3; mice lethality (number dead) (mice [2]; [13]): 2; mice lethality (number dead) (mice [2]; [14]): 1
C#CCOCc1ccc(Cl)c(Cl)c1 [II-C] | 27% | – | 0 | – | – | 33 min | 1.0 | – | 25% | percent kill after 24 hours [1, 16]: 4%
C#CCON=C(C)c1ccc2ccccc2c1 [I-F] | – | 0 | 4 | 32 min | 1.1 | 70 min | 2.2 | 47% | 24% | percent kill after 24 hours ([1]; GS 13005 0.10 + synergist 0.50 μg/fly): 45%
C#CCOCc1ccc(Cl)c(Cl)c1Cl [II-D] | – | – | 0 | – | – | 60 min | 1.2 | 100% | 40% | percent mortality 24 hours ([1]; Mobam 0.13 μg/fly, synergist/insecticide 1/1): 17%; percent mortality 24 hours ([1]; Mobam 0.25 μg/fly, synergist/insecticide 0.5/1): 30%; percent mortality 24 hours ([1]; Mobam 0.50 μg/fly, synergist/insecticide 1/1): 100%; percent mortality 24 hours [1, 7]: 100%; percent mortality 24 hours [1, 8]: 100%; percent mortality 24 hours [1, 9]: 100%; percent mortality 24 hours [1, 10]: 100%; percent kill after 24 hours [1, 16]: 10%; mice lethality (number dead) (mice [2]; [12]): 3; mice lethality (number dead) (mice [2]; [13]): 2; mice lethality (number dead) (mice [2]; [14]): 1
C#CCON=Cc1ccc(Cl)cc1Cl [I-G] | – | – | 0 | 27 min | 1.0 | 55 min | 1.7 | – | – | percent kill after 24 hours ([1]; Diazinon 0.02 + synergist 0.10 μg/fly): 40%
